Data reported in patent US20090047246A1, “NOVEL INHIBITORS OF HEPATITIS C VIRUS REPLICATION” (InterMune, Inc., priority 2007, published 2009).
pIC50: −log10 of the molar value.

What follows are compounds tested against T1, HCV NS3 helicase (Hepatitis C virus genotype 1b, UniProt P26663) (assay: HCV Helicase Prompt FRET Assay (Example A)). Conditions: HCV NS3 helicase; tables do not say whether Example A or Example B assay; read-out: IC50 Activity.
T1 construct: full-length NS3 (1-631), purified at Array BioPharma
T1 sequence (P26663 1027-1657): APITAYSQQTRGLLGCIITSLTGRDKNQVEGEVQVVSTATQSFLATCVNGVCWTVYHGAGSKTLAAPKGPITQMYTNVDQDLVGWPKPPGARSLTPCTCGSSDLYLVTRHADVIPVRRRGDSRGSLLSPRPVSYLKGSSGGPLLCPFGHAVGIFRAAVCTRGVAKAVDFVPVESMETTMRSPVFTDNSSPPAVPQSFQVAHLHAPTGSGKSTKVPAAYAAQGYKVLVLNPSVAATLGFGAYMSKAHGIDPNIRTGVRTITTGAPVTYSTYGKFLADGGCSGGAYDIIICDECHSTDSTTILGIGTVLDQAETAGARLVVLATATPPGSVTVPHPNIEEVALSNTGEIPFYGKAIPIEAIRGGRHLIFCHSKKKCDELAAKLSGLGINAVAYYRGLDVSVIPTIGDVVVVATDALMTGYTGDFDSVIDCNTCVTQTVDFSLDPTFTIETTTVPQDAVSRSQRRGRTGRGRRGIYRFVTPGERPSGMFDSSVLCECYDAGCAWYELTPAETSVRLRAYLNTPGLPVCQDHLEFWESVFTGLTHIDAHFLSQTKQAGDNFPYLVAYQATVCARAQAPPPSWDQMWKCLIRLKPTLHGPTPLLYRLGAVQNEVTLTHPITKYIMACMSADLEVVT
Type: biochemical
Method in brief: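 Initial unwinding rates, monitored as FAM fluorescence gain (ex 485, em 535) over ~30 min at room temperature, gave IC50 via 4- or 5-parameter logistic fits. Reactions: 50 nM quenched duplex, 250 nM capture strand, 300 μM ATP, 5–6 nM NS3 1-631 after 5 min compound preincubation, MOPS pH 7.0 buffer, 2% DMSO.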
In the case of O=C(O)Cc1cn(Cc2cccc(Oc3ccc(F)cc3)c2)c2ccccc12 [Example 474], the pIC50 was greater than 5.00.
For O=C(O)Cc1cn(Cc2cccc(Oc3ccccc3Cl)c2)c2ccccc12 [Example 475], the pIC50 was greater than 5.00.
With O=C(O)Cc1cn(Cc2cccc(Oc3cccc(Cl)c3)c2)c2ccccc12 [Example 476] the pIC50 was greater than 5.00.
O=C(O)Cc1cn(Cc2cccc(Oc3ccc(Cl)cc3)c2)c2ccccc12 [Example 477] showed a pIC50 greater than 5.00.
Work on COc1ccccc1Oc1cccc(Cn2cc(CC(=O)O)c3ccccc32)c1 [Example 478] yielded a pIC50 of 4.30 to 5.00.
In the case of COc1cccc(Oc2cccc(Cn3cc(CC(=O)O)c4ccccc43)c2)c1 [Example 479], the pIC50 was 4.30 to 5.00.
For COc1ccc(Oc2cccc(Cn3cc(CC(=O)O)c4ccccc43)c2)cc1 [Example 480], the pIC50 was greater than 5.00.
In the case of O=C(O)Cc1cn(Cc2cccc(Oc3ccccc3C(F)(F)F)c2)c2ccccc12 [Example 481], the pIC50 was greater than 5.00.
O=C(O)Cc1cn(Cc2cccc(Oc3cccc(C(F)(F)F)c3)c2)c2ccccc12 [Example 482] showed a pIC50 greater than 5.00.
O=C(O)Cc1cn(Cc2cccc(Oc3ccc(C(F)(F)F)cc3)c2)c2ccccc12 [Example 483] gave a pIC50 greater than 5.00.
Compound O=C(O)Cc1cn(Cc2cccc(Oc3ccc(F)c(F)c3)c2)c2ccccc12 [Example 484] has a pIC50 greater than 5.00.
Compound O=C(O)Cc1cn(Cc2cccc(Oc3cc(F)cc(F)c3)c2)c2ccccc12 [Example 485] has a pIC50 of 4.30 to 5.00.
O=C(O)Cc1cn(Cc2cccc(Oc3ccc(Cl)c(Cl)c3)c2)c2ccccc12 [Example 486] gave a pIC50 greater than 5.00.
Work on O=C(O)Cc1cn(Cc2cccc(Oc3cc(Cl)cc(Cl)c3)c2)c2ccccc12 [Example 487] yielded a pIC50 greater than 5.00.
For COc1cccc(Oc2cccc(Cn3cc(CC(=O)O)c4ccccc43)c2)c1OC [Example 488], the pIC50 was greater than 5.00.
For COc1ccc(Oc2cccc(Cn3cc(CC(=O)O)c4ccccc43)c2)c(OC)c1 [Example 489], the pIC50 was 4.30 to 5.00.
Compound COc1ccc(OC)c(Oc2cccc(Cn3cc(CC(=O)O)c4ccccc43)c2)c1 [Example 490] has a pIC50 of 4.30 to 5.00.
With COc1ccc(Oc2cccc(Cn3cc(CC(=O)O)c4ccccc43)c2)cc1OC [Example 491] the pIC50 was 4.30 to 5.00.
O=C(O)Cc1cn(Cc2cccc(Oc3cc(C(F)(F)F)cc(C(F)(F)F)c3)c2)c2ccccc12 [Example 492] was tested, and the pIC50 was greater than 5.00.
With O=C(O)Cc1cn(Cc2ccc(Oc3ccccc3F)cc2)c2ccccc12 [Example 493] the pIC50 was greater than 5.00.
O=C(O)Cc1cn(Cc2ccc(Oc3ccc(F)cc3)cc2)c2ccccc12 [Example 495] was tested, and the pIC50 was greater than 5.00.
O=C(O)Cc1cn(Cc2ccc(Oc3ccccc3Cl)cc2)c2ccccc12 [Example 496] was tested, and the pIC50 was greater than 5.00.
For O=C(O)Cc1cn(Cc2ccc(Oc3cccc(Cl)c3)cc2)c2ccccc12 [Example 497], the pIC50 was greater than 5.00.
Compound O=C(O)Cc1cn(Cc2ccc(Oc3ccc(Cl)cc3)cc2)c2ccccc12 [Example 498] has a pIC50 greater than 5.00.
COc1cccc(Oc2ccc(Cn3cc(CC(=O)O)c4ccccc43)cc2)c1 [Example 499] gave a pIC50 of 4.30 to 5.00.
Work on COc1ccccc1Oc1ccc(Cn2cc(CC(=O)O)c3ccccc32)cc1 [Example 500] yielded a pIC50 greater than 5.00.
With COc1ccc(Oc2ccc(Cn3cc(CC(=O)O)c4ccccc43)cc2)cc1 [Example 501] the pIC50 was greater than 5.00.
Work on O=C(O)Cc1cn(Cc2ccc(Oc3ccccc3C(F)(F)F)cc2)c2ccccc12 [Example 502] yielded a pIC50 greater than 5.00.
Compound O=C(O)Cc1cn(Cc2ccc(Oc3cccc(C(F)(F)F)c3)cc2)c2ccccc12 [Example 503] has a pIC50 greater than 5.00.
Compound O=C(O)Cc1cn(Cc2ccc(Oc3ccc(C(F)(F)F)cc3)cc2)c2ccccc12 [Example 504] has a pIC50 greater than 5.00.
Work on O=C(O)Cc1cn(Cc2ccc(Oc3ccc(F)c(F)c3)cc2)c2ccccc12 [Example 505] yielded a pIC50 greater than 5.00.
O=C(O)Cc1cn(Cc2ccc(Oc3cc(F)cc(F)c3)cc2)c2ccccc12 [Example 506] showed a pIC50 greater than 5.00.
With O=C(O)Cc1cn(Cc2ccc(Oc3ccc(Cl)c(Cl)c3)cc2)c2ccccc12 [Example 507] the pIC50 was greater than 5.00.
In the case of O=C(O)Cc1cn(Cc2ccc(Oc3cc(Cl)cc(Cl)c3)cc2)c2ccccc12 [Example 508], the pIC50 was greater than 5.00.
COc1cccc(Oc2ccc(Cn3cc(CC(=O)O)c4ccccc43)cc2)c1OC [Example 509] gave a pIC50 greater than 5.00.
In the case of COc1ccc(OC)c(Oc2ccc(Cn3cc(CC(=O)O)c4ccccc43)cc2)c1 [Example 510], the pIC50 was greater than 5.00.
With COc1ccc(Oc2ccc(Cn3cc(CC(=O)O)c4ccccc43)cc2)cc1OC [Example 511] the pIC50 was greater than 5.00.
Compound O=C(O)Cc1cn(Cc2ccc(Oc3cc(C(F)(F)F)cc(C(F)(F)F)c3)cc2)c2ccccc12 [Example 512] has a pIC50 greater than 5.00.
CCOC(=O)Cc1cn(Cc2ccc(Oc3cc(Cl)cc(Cl)c3)cc2)c2ccccc12 [Example 515] gave a pIC50 greater than 5.00.
Work on CCOC(=O)Cc1cn(Cc2ccc(Oc3ccc(C(F)(F)F)cc3)cc2)c2ccccc12 [Example 516] yielded a pIC50 of 4.30 to 5.00.
CCOC(=O)Cc1cn(Cc2ccc(Oc3cc(C(F)(F)F)cc(C(F)(F)F)c3)cc2)c2ccccc12 [Example 517] showed a pIC50 of 4.30 to 5.00.
Compound O=C(O)Cc1cn(Cc2ccc(Oc3cccc(F)c3)cc2)c2ccccc12 [Example 518] has a pIC50 greater than 5.00.
Compound CN(c1cccc(Cn2cc(CC(=O)O)c3ccccc32)c1)c1ccccc1F [Example 520] has a pIC50 greater than 5.00.
For CN(c1cccc(F)c1)c1cccc(Cn2cc(CC(=O)O)c3ccccc32)c1 [Example 521], the pIC50 was greater than 5.00.
With CN(c1ccc(F)cc1)c1cccc(Cn2cc(CC(=O)O)c3ccccc32)c1 [Example 522] the pIC50 was greater than 5.00.
CN(c1cccc(Cn2cc(CC(=O)O)c3ccccc32)c1)c1ccccc1Cl [Example 523] gave a pIC50 greater than 5.00.
For CN(c1cccc(Cl)c1)c1cccc(Cn2cc(CC(=O)O)c3ccccc32)c1 [Example 524], the pIC50 was greater than 5.00.
CN(c1ccc(Cl)cc1)c1cccc(Cn2cc(CC(=O)O)c3ccccc32)c1 [Example 525] gave a pIC50 greater than 5.00.
COc1ccccc1N(C)c1cccc(Cn2cc(CC(=O)O)c3ccccc32)c1 [Example 526] showed a pIC50 of 4.30 to 5.00.
COc1cccc(N(C)c2cccc(Cn3cc(CC(=O)O)c4ccccc43)c2)c1 [Example 527] was tested, and the pIC50 was greater than 5.00.
Compound COc1ccc(N(C)c2cccc(Cn3cc(CC(=O)O)c4ccccc43)c2)cc1 [Example 528] has a pIC50 greater than 5.00.
For CN(c1cccc(Cn2cc(CC(=O)O)c3ccccc32)c1)c1ccccc1C(F)(F)F [Example 529], the pIC50 was greater than 5.00.
With CN(c1cccc(Cn2cc(CC(=O)O)c3ccccc32)c1)c1cccc(C(F)(F)F)c1 [Example 530] the pIC50 was greater than 5.00.
CN(c1ccc(C(F)(F)F)cc1)c1cccc(Cn2cc(CC(=O)O)c3ccccc32)c1 [Example 531] gave a pIC50 greater than 5.00.
CN(c1cccc(Cn2cc(CC(=O)O)c3ccccc32)c1)c1cccc(F)c1F [Example 533] was tested, and the pIC50 was greater than 5.00.
CN(c1cccc(Cn2cc(CC(=O)O)c3ccccc32)c1)c1ccc(F)cc1F [Example 534] showed a pIC50 of 4.30 to 5.00.
CN(c1cccc(Cn2cc(CC(=O)O)c3ccccc32)c1)c1cc(F)ccc1F [Example 535] gave a pIC50 of 4.30 to 5.00.
For CN(c1cccc(Cn2cc(CC(=O)O)c3ccccc32)c1)c1c(F)cccc1F [Example 536], the pIC50 was 4.30 to 5.00.
Work on CN(c1cccc(Cn2cc(CC(=O)O)c3ccccc32)c1)c1cccc(Cl)c1Cl [Example 537] yielded a pIC50 greater than 5.00.
Work on CN(c1cccc(Cn2cc(CC(=O)O)c3ccccc32)c1)c1ccc(Cl)cc1Cl [Example 538] yielded a pIC50 greater than 5.00.
In the case of CN(c1cccc(Cn2cc(CC(=O)O)c3ccccc32)c1)c1cc(Cl)ccc1Cl [Example 539], the pIC50 was greater than 5.00.
CN(c1cccc(Cn2cc(CC(=O)O)c3ccccc32)c1)c1c(Cl)cccc1Cl [Example 540] showed a pIC50 greater than 5.00.
CN(c1cccc(Cn2cc(CC(=O)O)c3ccccc32)c1)c1ccc(Cl)c(Cl)c1 [Example 541] was tested, and the pIC50 was greater than 5.00.
Work on COc1ccc(N(C)c2cccc(Cn3cc(CC(=O)O)c4ccccc43)c2)c(OC)c1 [Example 542] yielded a pIC50 greater than 5.00.
COc1ccc(OC)c(N(C)c2cccc(Cn3cc(CC(=O)O)c4ccccc43)c2)c1 [Example 543] showed a pIC50 greater than 5.00.
Work on COc1ccc(N(C)c2cccc(Cn3cc(CC(=O)O)c4ccccc43)c2)cc1OC [Example 544] yielded a pIC50 greater than 5.00.
CN(c1cccc(Cn2cc(CC(=O)O)c3ccccc32)c1)c1ccc(C(F)(F)F)cc1C(F)(F)F [Example 545] showed a pIC50 of 4.30 to 5.00.
In the case of CN(c1cccc(Cn2cc(CC(=O)O)c3ccccc32)c1)c1cc(C(F)(F)F)ccc1C(F)(F)F [Example 546], the pIC50 was greater than 5.00.
Work on CN(c1cccc(Cn2cc(CC(=O)O)c3ccccc32)c1)c1cc(C(F)(F)F)cc(C(F)(F)F)c1 [Example 547] yielded a pIC50 greater than 5.00.
Work on CCOC(=O)Cc1cn(Cc2cccc(N(C)c3cc(Cl)ccc3Cl)c2)c2ccccc12 [Example 548] yielded a pIC50 greater than 5.00.
CCOC(=O)Cc1cn(Cc2cccc(N(C)c3ccc(Cl)c(Cl)c3)c2)c2ccccc12 [Example 550] showed a pIC50 of less than 4.30.
CCN(c1cccc(Cn2cc(CC(=O)O)c3ccccc32)c1)c1ccccc1Cl [Example 552] was tested, and the pIC50 was greater than 5.00.
CCN(c1cccc(Cn2cc(CC(=O)O)c3ccccc32)c1)c1ccccc1C(F)(F)F [Example 553] showed a pIC50 of 4.30 to 5.00.
For CC(C)N(c1cccc(Cn2cc(CC(=O)O)c3ccccc32)c1)c1ccccc1Cl [Example 554], the pIC50 was greater than 5.00.
For CC(C)N(c1cccc(Cn2cc(CC(=O)O)c3ccccc32)c1)c1ccccc1C(F)(F)F [Example 555], the pIC50 was greater than 5.00.

Same assay, conditions: Table 21, compounds made using Scheme 28; read-out: IC50 Activity
Work on CN(c1ccc(Cn2cc(CC(=O)O)c3ccccc32)cc1)c1cccc(F)c1 [Example 557] yielded a pIC50 greater than 5.00.
CN(c1ccc(F)cc1)c1ccc(Cn2cc(CC(=O)O)c3ccccc32)cc1 [Example 558] gave a pIC50 of 4.30 to 5.00.
For CN(c1ccc(Cn2cc(CC(=O)O)c3ccccc32)cc1)c1ccccc1Cl [Example 559], the pIC50 was greater than 5.00.
For CN(c1ccc(Cn2cc(CC(=O)O)c3ccccc32)cc1)c1cccc(Cl)c1 [Example 560], the pIC50 was greater than 5.00.
CN(c1ccc(Cl)cc1)c1ccc(Cn2cc(CC(=O)O)c3ccccc32)cc1 [Example 561] gave a pIC50 greater than 5.00.
For COc1ccccc1N(C)c1ccc(Cn2cc(CC(=O)O)c3ccccc32)cc1 [Example 562], the pIC50 was 4.30 to 5.00.
